How the values were obtained:
Format in all cases: biochemical
JAK2 = target: T1, JAK2 (Homo sapiens, UniProt O60674); assay: Z'-LYTE kinase assay JAK2
T1 construct: 5 μl of catalytic domain recombinant Kinase enzyme+Tyr peptide substrate (Invitrogen, CA); purchased Invitrogen
Outline: (§1)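 Read-out is FRET fluorescence between coumarin and fluorescein on a Tyr6 peptide, lost when the development protease cleaves unphosphorylated substrate. Kinase reaction used recombinant catalytic domain with ATP, 1 h at room temperature, 1% DMSO.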

JAK1 = target: T2, JAK1 (Homo sapiens, UniProt P23458); assay: Z'-LYTE kinase assay JAK1
T2 construct: 5 μl of catalytic domain recombinant Kinase enzyme+Tyr peptide substrate (Invitrogen, CA); purchased Invitrogen
T2 sequence (P23458 875-1153 limits assumed): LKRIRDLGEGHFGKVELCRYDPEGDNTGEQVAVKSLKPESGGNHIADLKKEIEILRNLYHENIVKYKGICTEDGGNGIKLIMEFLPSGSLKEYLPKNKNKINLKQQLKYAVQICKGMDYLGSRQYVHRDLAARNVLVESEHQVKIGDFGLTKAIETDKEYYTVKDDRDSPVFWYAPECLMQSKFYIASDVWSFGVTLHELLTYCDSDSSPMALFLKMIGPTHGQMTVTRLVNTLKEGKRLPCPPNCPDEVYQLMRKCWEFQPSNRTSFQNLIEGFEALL
Outline: as §1

JAK3 = target: T3, JAK3 (Homo sapiens, UniProt P52333); assay: Z'-LYTE kinase assay JAK3
T3 construct: 5 μl of catalytic domain recombinant Kinase enzyme+Tyr peptide substrate (Invitrogen, CA); purchased Invitrogen
T3 sequence (P52333 822-1111 limits assumed): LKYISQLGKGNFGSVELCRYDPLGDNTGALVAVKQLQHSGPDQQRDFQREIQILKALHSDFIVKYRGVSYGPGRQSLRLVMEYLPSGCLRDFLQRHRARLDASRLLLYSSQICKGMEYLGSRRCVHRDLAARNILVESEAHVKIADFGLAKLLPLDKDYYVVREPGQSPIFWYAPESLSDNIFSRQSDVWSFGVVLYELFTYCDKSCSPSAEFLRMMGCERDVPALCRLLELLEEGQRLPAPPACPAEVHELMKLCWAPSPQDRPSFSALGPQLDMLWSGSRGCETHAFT
Outline: as §1

T1 sequence (O60674 849-1124 limits assumed): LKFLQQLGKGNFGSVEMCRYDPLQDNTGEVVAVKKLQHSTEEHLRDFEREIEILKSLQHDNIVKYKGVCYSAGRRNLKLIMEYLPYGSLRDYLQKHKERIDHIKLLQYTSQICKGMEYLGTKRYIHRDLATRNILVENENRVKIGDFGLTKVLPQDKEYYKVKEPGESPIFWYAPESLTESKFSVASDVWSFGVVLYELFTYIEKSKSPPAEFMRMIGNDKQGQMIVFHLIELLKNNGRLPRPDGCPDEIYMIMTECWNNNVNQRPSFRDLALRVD

Row | IC50 (JAK2) | IC50 (JAK1) | IC50 (JAK3) | Structure (SMILES)
1 | 10 to 100 nM | 100 to 1000 nM | 1 to 10 nM | CN(C)C(=O)NCc1ccc(Nc2cc(NCc3cccc4ccsc34)c(C(N)=O)cn2)cc1 [Example 354, 4-(benzo[b]thiophen-7-ylmethylamino)-6-(4-((3,3-dimethylureido)methyl)phenylamino)nicotinamide]
2 | 100 to 1000 nM | 100 to 1000 nM | 1 to 10 nM | CN(C)S(=O)(=O)NCc1ccc(Nc2cc(NCc3cccc4ccsc34)c(C(N)=O)cn2)cc1 [Example 355, 4-(benzo[b]thiophen-7-ylmethylamino)-6-(4-((N,N-dimethylsulfamoylamino)methyl)phenylamino)nicotinamide]
3 | > 1000 nM | > 1000 nM | 100 to 1000 nM | CC(=O)N(C)c1ccc(Nc2cc(NC3(c4ccccc4)CC3)c(C(N)=O)cn2)cc1 [Example 361, 6-(4-(N-methylacetamido)phenylamino)-4-(1-phenylcyclopropylamino)nicotinamide]
4 | > 1000 nM | > 1000 nM | 10 to 100 nM | NC(=O)c1cnc(Nc2ccc(N3CCCCC3)cc2)cc1NC1(c2ccccc2)CC1 [Example 362]
5 | 100 to 1000 nM | > 1000 nM | 10 to 100 nM | CC(=O)N1CCN(c2cccc(Nc3cc(NC4(c5ccccc5)CC4)c(C(N)=O)cn3)c2)CC1 [Example 371, 6-(3-(4-acetylpiperazin-1-yl)phenylamino)-4-(1-phenylcyclopropylamino)nicotinamide]
6 | > 1000 nM | > 1000 nM | > 1000 nM | CC(=O)N1CCN(c2cccc(N(C(C)=O)c3cc(NC4(c5ccccc5)CC4)c(C(N)=O)cn3)c2)CC1 [Example 372, 6-(N-(3-(4-acetylpiperazin-1-yl)phenyl)acetamino)-4-(1-phenylcyclopropylamino)nicotinamide]
7 | 10 to 100 nM | 100 to 1000 nM | 1 to 10 nM | CCC(=O)N1CCN(c2ccc(Nc3cc(NC4(c5cccc(F)c5F)CC4)c(C(N)=O)cn3)cc2)CC1 [Example 374, 4-(1-(2,3-difluorophenyl)cyclopropylamino)-6-(4-(4-propionylpiperazin-1-yl)phenylamino)nicotinamide]
8 | > 1000 nM | > 1000 nM | 10 to 100 nM | CCC(=O)N1CCC(c2ccc(Nc3cc(NC4(c5ccccc5)CC4)c(C(N)=O)cn3)cc2)CC1 [Example 375, 4-(1-phenylcyclopropylamino)-6-(4-(1-propionylpiperidin-4-yl)phenylamino)nicotinamide]
9 | > 1000 nM | > 1000 nM | 100 to 1000 nM | CC(=O)N1CCN(c2ccc(Nc3ncc(C(N)=O)c(NCc4cccc(F)c4)c3Cl)cc2)CC1 [Example 376]
10 | 100 to 1000 nM | 100 to 1000 nM | 10 to 100 nM | N#CCOc1cccc(Nc2cc(NCc3ccccc3)c(C(N)=O)cn2)c1 [Example 383]
11 | 100 to 1000 nM | 100 to 1000 nM | 1 to 10 nM | N#CCc1cccc(Nc2cc(NCc3ccccc3)c(C(N)=O)cn2)c1 [Example 387]
12 | 100 to 1000 nM | 100 to 1000 nM | 10 to 100 nM | N#CCc1ccc(Nc2cc(NCc3ccccc3)c(C(N)=O)cn2)cc1 [Example 390]
13 | > 1000 nM | > 1000 nM | 10 to 100 nM | N#Cc1cccc(Nc2cc(NCc3ccccc3)c(C(N)=O)cn2)c1 [Example 391]
14 | > 1000 nM | > 1000 nM | 100 to 1000 nM | N#Cc1ccc(Nc2cc(NCc3ccccc3)c(C(N)=O)cn2)cc1 [Example 392]
15 | > 1000 nM | > 1000 nM | > 1000 nM | N#Cc1ccc(Nc2cc(NCc3ccccc3)c(C(N)=O)cn2)cc1C#N [Example 393]
16 | 10 to 100 nM | 10 to 100 nM | 1 to 10 nM | NC(=O)c1cnc(Nc2ccc(N3CCN(c4ccccn4)CC3)cc2)cc1NCc1cccc2[nH]ccc12 [Example 402]
17 | > 1000 nM | > 1000 nM | 10 to 100 nM | CS(=O)(=O)c1ccc(Nc2cc(NCc3cccc(-c4ccncc4)c3)c(C(N)=O)cn2)cc1 [Example 413, 6-(4-(methylsulfonyl)phenylamino)-4-(3-(pyridine-4-yl)benzylamino)nicotinamide]
18 | 100 to 1000 nM | 100 to 1000 nM | 1 to 10 nM | CN(C)C(=O)c1ccc(Nc2cc(NCc3cccc(-c4cccnc4)c3)c(C(N)=O)cn2)cc1 [Example 414, 6-(4-(dimethylcarbamoyl)phenylamino)-4-(3-(pyridine-3-yl)benzylamino)nicotinamide]
19 | > 1000 nM | > 1000 nM | 10 to 100 nM | CS(=O)(=O)c1ccc(Nc2cc(NCc3cccc(-c4cccnc4)c3)c(C(N)=O)cn2)cc1 [Example 415]

The next lines start with the compound.

Row | Structure (SMILES) | IC50 (JAK2) | IC50 (JAK1) | IC50 (JAK3)
20 | NC(=O)c1cnc(Nc2ccc(C3CN(C(=O)N4CCCC4)C3)cc2)cc1NCc1ccccc1 [Example 338, 4-(benzylamino)-6-(4-(1-(pyrrolidine-1-carbonyl)azetidin-3-yl)phenylamino)nicotinamide] | 100 to 1000 nM | 100 to 1000 nM | 1 to 10 nM
21 | CN(C)S(=O)(=O)N1CC(c2ccc(Nc3cc(NCc4ccccc4)c(C(N)=O)cn3)cc2)C1 [Example 339, 4-(benzylamino)-6-(4-(1-(N,N-dimethylsulfamoyl)azetidin-3-yl)phenylamino)nicotinamide] | > 1000 nM | > 1000 nM | 10 to 100 nM
22 | CNC(=O)Cc1ccc(Nc2cc(NCc3ccccc3)c(C(N)=O)cn2)cc1 [Example 340, 4-(benzylamino)-6-(4-(2-(methylamino)-2-oxoethyl)phenylamino)nicotinamide] | 100 to 1000 nM | 100 to 1000 nM | 10 to 100 nM
23 | NC(=O)c1cnc(Nc2ccc(CC(=O)NCC(F)(F)F)cc2)cc1NCc1ccccc1 [Example 341, 4-(benzylamino)-6-(4-(2-oxo-2-(2,2,2-trifluoroethylamino)ethyl)phenylamino)nicotinamide] | 100 to 1000 nM | 100 to 1000 nM | 1 to 10 nM
24 | CN(C)C(=O)C1CN(c2ccc(Nc3cc(NCc4ccccc4)c(C(N)=O)cn3)cc2F)C1 [Example 342, 4-(benzylamino)-6-(4-(3-(dimethylcarbamoyl)azetidin-1-yl)-3-fluorophenylamino)nicotinamide] | 100 to 1000 nM | 100 to 1000 nM | 1 to 10 nM
25 | CN(C)C(=O)C1CCN(c2ccc(Nc3cc(NCc4ccccc4)c(C(N)=O)cn3)cc2)CC1 [Example 343, 4-(benzylamino)-6-(4-(4-(dimethylcarbamoyl)piperidin-1-yl)phenylamino)nicotinamide] | 10 to 100 nM | 100 to 1000 nM | 1 to 10 nM
26 | CN(C)C(=O)C1CCN(c2ccc(Nc3cc(NCc4cccc5sccc45)c(C(N)=O)cn3)cc2)CC1 [Example 344, 4-(benzo[b]thiophen-4-ylmethylamino)-6-(4-(4-(dimethylcarbamoyl)piperidin-1-yl)phenylamino)nicotinamide] | 10 to 100 nM | 100 to 1000 nM | 1 to 10 nM
27 | CN(C)C(=O)C1CCN(c2ccc(Nc3cc(NCc4cccc5[nH]ccc45)c(C(N)=O)cn3)cc2)CC1 [Example 345, 4-((1H-indol-4-yl)methylamino)-6-(4-(4-(dimethylcarbamoyl)piperidin-1-yl)phenylamino)nicotinamide] | 1 to 10 nM | 1 to 10 nM | < 1 nM
28 | CS(=O)(=O)Cc1ccc(Nc2cc(NCc3cccc4ccsc34)c(C(N)=O)cn2)cc1 [Example 346, 4-(benzo[b]thiophen-7-ylmethylamino)-6-(4-(methylsulfonylmethyl)phenylamino)nicotinamide] | 10 to 100 nM | 10 to 100 nM | < 1 nM
29 | CS(=O)(=O)Cc1ccc(Nc2cc(NCc3ccccc3)c(C(N)=O)cn2)cc1 [Example 347, 4-(benzylamino)-6-(4-(methylsulfonylmethyl)phenylamino)nicotinamide] | 100 to 1000 nM | 100 to 1000 nM | 1 to 10 nM
30 | CS(=O)(=O)Cc1ccc(Nc2cc(NCc3cccc4[nH]ccc34)c(C(N)=O)cn2)cc1 [Example 348, 4-((1H-indol-4-yl)methylamino)-6-(4-(methylsulfonylmethyl)phenylamino)nicotinamide] | 1 to 10 nM | 1 to 10 nM | < 1 nM
31 | CN(C)C(=O)C1CN(c2ccc(Nc3cc(NCc4cccc5ccsc45)c(C(N)=O)cn3)cc2F)C1 [Example 349, 4-(benzo[b]thiophen-7-ylmethylamino)-6-(4-(3-(dimethylcarbamoyl)azetidin-1-yl)-3-fluorophenylamino)nicotinamide] | 10 to 100 nM | 100 to 1000 nM | 1 to 10 nM
32 | CN(C)C(=O)C1CCN(c2ccc(Nc3cc(NCc4cccc5ccsc45)c(C(N)=O)cn3)cc2)CC1 [Example 350, 4-(benzo[b]thiophen-7-ylmethylamino)-6-(4-(4-(dimethylcarbamoyl)piperidin-1-yl)phenylamino)nicotinamide] | 10 to 100 nM | 10 to 100 nM | < 1 nM
33 | CN(C)C(=O)C1CCN(c2ccc(Nc3cc(NCc4cccc5ccsc45)c(C(N)=O)cn3)cc2Cl)CC1 [Example 351, 4-(benzo[b]thiophen-7-ylmethylamino)-6-(3-chloro-4-(4-(dimethylcarbamoyl)piperidin-1-yl)phenylamino)nicotinamide] | 100 to 1000 nM | 100 to 1000 nM | 1 to 10 nM
34 | CC(=O)NCc1ccc(Nc2cc(NCc3cccc4ccsc34)c(C(N)=O)cn2)cc1 [Example 352, 6-(4-(acetamidomethyl)phenylamino)-4-(benzo[b]thiophen-7-ylmethylamino)nicotinamide] | 10 to 100 nM | 10 to 100 nM | 1 to 10 nM
35 | CS(=O)(=O)NCc1ccc(Nc2cc(NCc3cccc4ccsc34)c(C(N)=O)cn2)cc1 [Example 353, 4-(benzo[b]thiophen-7-ylmethylamino)-6-(4-(methylsulfonamidomethyl)phenylamino)nicotinamide] | 10 to 100 nM | 100 to 1000 nM | 1 to 10 nM
